Several values for one entry are separate records, joined by “and”; a condition that tells them apart may be missing. Identical values can stand only once. Like-named read-outs stand apart in the source and are kept apart here.
Tests used:
B104 neuroblastoma cells = assay: BDNF release from B104 cells, in-situ ELISA; format: cell-based, rat; details: 5 days, vs untreated control
Sigma-1 Receptor (S1R) = Sigma-1 Receptor (S1R) (Homo sapiens (Human), UniProt Q99720); assay: In-vitro binding assay, Sigma-1 receptor; details: for S1R fold selectivity (S2R/S1R): ratio S2R Ki/S1R Ki
Sigma-1 Receptor (S1R), sequence (Q99720 whole entry, species assumed): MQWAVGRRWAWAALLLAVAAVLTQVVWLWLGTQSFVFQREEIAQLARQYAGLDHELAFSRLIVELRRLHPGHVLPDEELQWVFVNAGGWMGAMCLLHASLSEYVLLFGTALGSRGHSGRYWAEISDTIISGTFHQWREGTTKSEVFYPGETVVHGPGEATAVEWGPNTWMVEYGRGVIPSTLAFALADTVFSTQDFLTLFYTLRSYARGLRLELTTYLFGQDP
Protocol: (§1) In-vitro binding assays performed at Eurofins Panlabs Taiwan, Ltd. Specific ligand binding was determined in the presence of an excess of unlabelled ligand.

YAC128 HD mice [1] = test system: YAC128 HD mice
Protocol: (§2) Animals. […] Mice were bred at the Biological Resource Centre (Agency for Science, Technology and Research, ASTAR), and group-housed with littermates of mixed genotype. Animals were maintained under a 12-h light cycle (lights on at 09:00) in a clean facility, and given free access to food and water. Experiments were performed with the approval of the Institutional Animal Care and Use Committee at the Biomedical Sciences Institute (ASTAR) and in accordance with their approved guidelines.
(§3) Animals were weighed every two weeks to ensure the correct dose was maintained.
(§4) Mice were divided into three groups. […] One cohort was behaviorally tested every two months commencing at 2 months of age. Mice were tested for psychiatric function (open field, elevated plus maze, and forced swim test). Tests were conducted at a set time during the day, prior to drug administration.

[2] = test system: rodents exhibiting symptoms of anxiety; details: periodic administration, paper example
[3] = test system: patient diagnosed with anxiety or depression; details: periodic administration, intravenous or oral, paper example
Male NMRI mice = details: 30 min before test
Text: Animals were assigned according to the experimental plan to one of the 4 test boxes run simultaneously.
The number of marbles covered by sawdust were counted. The experimenter also observed the animals for obvious inhibition of general activity (locomotor activity).

Sprague-Dawley male rats = details: FST day 8
Text: On day 8, rats were again placed in a water tank, and time spent immobile measured.
Sprague-Dawley male rats, 6 weeks old were used. Rats were pre-tested on day 1 to ensure stable and high duration of immobility during the 5-min test session.

YAC128 HD mice [4] = details: early treatment from 1.5 months, 30 mg/kg
Protocol: as §2, §3, §4
Anxiety-like behavioral tests. The open-field (OF) and elevated plus maze (EPM) tests are used to assess anxiety-like behavioral in rodents. The time spent in the center of the arena in the OF and the time spent in the open arms of the maze in the EPM are considered measures of anxiety-like behavior.

Sigma-2 receptor (S2R) = Sigma-2 receptor (S2R) (Homo sapiens (Human), UniProt Q5BJF2); assay: In-vitro binding assay, Sigma-2 receptor; details: Cheng Prusoff equation
Sigma-2 receptor (S2R), sequence (Q5BJF2 whole entry, species assumed): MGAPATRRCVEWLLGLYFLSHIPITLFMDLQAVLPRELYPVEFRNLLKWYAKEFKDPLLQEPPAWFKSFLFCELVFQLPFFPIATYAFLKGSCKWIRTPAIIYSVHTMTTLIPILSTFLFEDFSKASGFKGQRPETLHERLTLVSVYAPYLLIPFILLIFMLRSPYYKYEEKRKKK
Protocol: as §1

HD patients = details: 45 mg bid
Text: PBA-S includes behavioral assessments of depressed mood, anxiety, apathy and irritability.
The lack of initiative subscale of the PBA-S is a measure of apathy in HD patients. Apathy is a symptom common to HD and depression.
The Problem Behaviors Assessment-Short (PBA-s) scale, is a measure of psychiatric symptoms including anxiety, depression and apathy. The PBA-s is an interview designed specifically for rating the severity and frequency of behavioral abnormalities in HD. PBA-S includes behavioral assessments of depressed mood, anxiety, apathy and irritability. This scale is widely used in HD clinical trials and recommended as a measure of screening behavioral symptoms, including depression and anxiety. […] The lack of initiative subscale of the PBA-S is a measure of apathy in HD patients. Apathy is a symptom common to HD and depression.

Male Sprague-Dawley rats = details: 30 mg/kg p.o., 30 min and 120 min after administration
Protocol: Male Sprague-Dawley rats (270-400 g bodyweight) were housed in groups of two in a temperature (20±2° C.) and humidity (50-60%) controlled colony room under a non-reversed 12 (6-18 on)/12 h light-dark cycle with food and water ad libitum except during the actual experiments. 4 rats were used for each drug dose and the vehicle-treated control group.
USV was recorded by a microphone and processed by an interface to select USV signals and to digitize the resulting signals for automatic processing. In the priming phase, each rat was placed in the test chamber. After a 2 min time period, a series of at most ten shocks (trials), 1.8 mA for 0.3 s, separated by 20 s shock-free intervals, was delivered via the grid floor of the test chamber. In the shock-free intervals the occurrence of ultrasonic vocalization (22±5 kHz) was automatically recorded, and the duration of ultrasonic vocalization was calculated immediately. The priming session was terminated either when the rat constantly vocalized at least for 10 s on three consecutive trials or after the tenth trial. Rats not responding with USV on three consecutive trials were excluded from the test. In the actual test performed on the next day, each rat received 5 initial shocks (1.8 mA for 0.3 s, separated by 20 s shock-free intervals) in the test chamber, and the duration of USV (22+4 kHz) was recorded during the following 3 min period.

D3Rs = D3Rs (Homo sapiens (Human), UniProt P35462); details: cited from earlier work
D3Rs, sequence (P35462 whole entry): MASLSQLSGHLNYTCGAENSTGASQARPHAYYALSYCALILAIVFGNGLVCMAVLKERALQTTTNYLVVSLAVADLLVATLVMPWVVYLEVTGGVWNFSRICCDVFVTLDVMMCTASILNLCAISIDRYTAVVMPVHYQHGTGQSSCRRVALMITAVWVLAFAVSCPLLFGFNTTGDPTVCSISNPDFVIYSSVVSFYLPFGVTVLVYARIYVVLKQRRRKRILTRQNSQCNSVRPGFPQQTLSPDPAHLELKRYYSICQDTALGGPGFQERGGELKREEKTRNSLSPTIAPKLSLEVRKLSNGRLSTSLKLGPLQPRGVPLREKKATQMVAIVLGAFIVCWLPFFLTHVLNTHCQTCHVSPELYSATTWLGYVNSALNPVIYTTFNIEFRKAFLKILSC

D2Rs = D2Rs (Homo sapiens (Human), UniProt P14416); details: cited from earlier work
D2Rs, sequence (P14416 whole entry): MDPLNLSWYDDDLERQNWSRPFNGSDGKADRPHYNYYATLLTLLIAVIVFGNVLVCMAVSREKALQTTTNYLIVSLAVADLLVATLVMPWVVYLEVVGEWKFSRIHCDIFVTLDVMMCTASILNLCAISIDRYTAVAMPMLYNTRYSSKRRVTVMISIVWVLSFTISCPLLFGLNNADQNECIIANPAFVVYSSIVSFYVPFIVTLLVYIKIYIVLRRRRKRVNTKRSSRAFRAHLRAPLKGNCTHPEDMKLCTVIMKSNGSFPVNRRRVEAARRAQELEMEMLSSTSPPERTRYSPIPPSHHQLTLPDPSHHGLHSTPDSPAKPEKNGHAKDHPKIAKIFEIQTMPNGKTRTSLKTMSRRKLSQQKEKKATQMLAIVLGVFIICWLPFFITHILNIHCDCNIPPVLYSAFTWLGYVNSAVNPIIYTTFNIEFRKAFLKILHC

## CCCN1CCC(O)(c2cccc(S(C)(=O)=O)c2)CC1 [Compound 1]
B104 neuroblastoma cells; Compound 1 1 μM alone
  increase in BDNF secretion: 12.5%
Sigma-1 Receptor (S1R)
  S1R fold selectivity (S2R/S1R): >270 fold

## CCCN1CC[C@@H](c2cccc(S(C)(=O)=O)c2)[C@@H](O)C1 [Compound 4]
B104 neuroblastoma cells; Compound 4 0.001 μM alone
  change in BDNF secretion: −1.5%
Sigma-1 Receptor (S1R)
  S1R fold selectivity (S2R/S1R): >35 fold

## CCCN1CCC(c2cccc(S(C)(=O)=O)c2)CC1 [Pridopidine, 4-[3-(methylsulfonyl)phenyl]-1-propyl-piperidine]
YAC128 HD mice [1]; early treatment from 1.5 months, 30 mg/kg, 12 months of age
  time spent immobile in forced swim test: reduced the time spent immobile
YAC128 HD mice [1]; late (manifest) treatment from 8 months, escalating to 30 mg/kg oral gavage
  depressive-like behavior, immobility time in forced swim test: significantly improves depressive-like phenotype
[2]
  efficacy in treating anxiety: effective in treating anxiety
[3]
  efficacy in treating patient with anxiety or depression: effective in treating the patient
Male NMRI mice; 1 mg/kg p.o.
  inhibition of marble-burying: 8%
Male NMRI mice; 3 mg/kg p.o.
  inhibition of marble-burying: 49%
Male NMRI mice; 10 mg/kg p.o.
  inhibition of marble-burying: 62%
Male NMRI mice; 30 mg/kg p.o.
  inhibition of marble-burying: 73%
Sprague-Dawley male rats; 3 mg/kg oral gavage daily for 7 days
  decrease in immobility time: 38%
Sprague-Dawley male rats; 15 mg/kg oral gavage daily for 7 days
  decrease in immobility time: 58%
YAC128 HD mice [4]; tested at 6 months
  time spent in the center of the arena (open field): increased the time spent in the center of the arena
YAC128 HD mice [4]; tested at 8 months
  time spent in the open arms (elevated plus maze): decreased anxiety-like behavior
Sigma-2 receptor (S2R)
  Ki: 5.45 µM
HD patients; week 52, p=0.0603
  PBA-S change from baseline vs placebo: −2.13 units
HD patients; week 52, p=0.0704
  PBA-S lack of initiative measure, change from baseline vs placebo: −1.27 units
B104 neuroblastoma cells; pridopidine 0.001 μM alone
  increase in BDNF secretion: 13.6% and 13.5%
B104 neuroblastoma cells; pridopidine 0.005 μM alone
  increase in BDNF secretion: 26%
B104 neuroblastoma cells; pridopidine 0.01 μM alone
  increase in BDNF secretion: 3.4%
Male Sprague-Dawley rats
  effect on USV duration: significantly inhibited USV
Sigma-1 Receptor (S1R); Cheng Prusoff equation
  Ki: 57 nM
D3Rs
  higher affinity towards the S1R vs D3Rs: ~30 fold
D2Rs
  higher affinity towards the S1R vs D2Rs: ~500 fold

Reference: patent publication US20230390272A1 (PRILENIA NEUROTHERAPEUTICS LTD., priority 2020, published 2023)
